Data reported in PubChem BioAssay AID1259407 (Chemical Carcinogenesis Research Information System (CCRIS), 2018).
Calls of active or inactive are those of the source. No rule for the calls is given here.

Test system: CCRIS mutagenicity, Ames/micronucleus/aberration tests
Assay: CCRIS mutagenicity studies
[1] = Test System: AMES SALMONELLA TYPHIMURIUM, Strain/Indicator: TA100, Metabolic Activation: NONE, Method: PREINCUBATION
[2] = Test System: AMES SALMONELLA TYPHIMURIUM, Strain/Indicator: TA98, Metabolic Activation: NONE, Method: STANDARD PLATE
[3] = Test System: AMES SALMONELLA TYPHIMURIUM, Strain/Indicator: TA100, Metabolic Activation: NONE, Method: STANDARD PLATE
[4] = Test System: AMES SALMONELLA TYPHIMURIUM, Strain/Indicator: TA98, Metabolic Activation: RAT, LIVER, S-9, AROCLOR 1254, Method: STANDARD PLATE

`Cc1ccc(N(C)C)cc1` was tested, and the mutagenic call (Test System: AMES SALMONELLA TYPHIMURIUM, Strain/Indicator: TA97, Metabolic Activation: HAMSTER, LIVER, S-9, AROCLOR 1254 (10 OR 30%), Method: PREINCUBATION) was “inactive; negative”, the mutagenic call (Test System: AMES SALMONELLA TYPHIMURIUM, Strain/Indicator: TA97, Metabolic Activation: NONE, Method: PREINCUBATION) was “inactive; negative” and the mutagenic call (Test System: AMES SALMONELLA TYPHIMURIUM, Strain/Indicator: TA97, Metabolic Activation: RAT, LIVER, S-9, AROCLOR 1254 (10 OR 30%), Method: PREINCUBATION) was “inactive; negative”. For the same compound, the mutagenic call (Test System: AMES SALMONELLA TYPHIMURIUM, Strain/Indicator: TA98, Metabolic Activation: HAMSTER, LIVER, S-9, AROCLOR 1254 (10 OR 30%), Method: PREINCUBATION) was “inactive; negative”, the mutagenic call (Test System: AMES SALMONELLA TYPHIMURIUM, Strain/Indicator: TA98, Metabolic Activation: NONE, Method: PREINCUBATION) was “inactive; negative” and the mutagenic call (Test System: AMES SALMONELLA TYPHIMURIUM, Strain/Indicator: TA98, Metabolic Activation: RAT, LIVER, S-9, AROCLOR 1254 (10 OR 30%), Method: PREINCUBATION) was “inactive; negative”. For the same compound, the mutagenic call (Test System: AMES SALMONELLA TYPHIMURIUM, Strain/Indicator: TA100, Metabolic Activation: HAMSTER, LIVER, S-9, AROCLOR 1254 (10 OR 30%), Method: PREINCUBATION) was “inactive; negative”, the mutagenic call [1] was “inactive; negative” and the mutagenic call (Test System: AMES SALMONELLA TYPHIMURIUM, Strain/Indicator: TA100, Metabolic Activation: RAT, LIVER, S-9, AROCLOR 1254 (10 OR 30%), Method: PREINCUBATION) was “inactive; negative”. For the same compound, the mutagenic call (Test System: AMES SALMONELLA TYPHIMURIUM, Strain/Indicator: TA1535, Metabolic Activation: RAT, LIVER, S-9, AROCLOR 1254 (5%), Method: STANDARD PLATE) was “active; positive”, the mutagenic call (Test System: AMES SALMONELLA TYPHIMURIUM, Strain/Indicator: TA1535, Metabolic Activation: RAT, LIVER, S-9, AROCLOR 1254 (5,10%), Method: PREINCUBATION) was “active; positive” and the mutagenic call (Test System: MOUSE LYMPHOMA, Strain/Indicator: L5178Y (TK+/TK-), Metabolic Activation: NONE, Method: SUSPENSION/PLATE) was “active; positive. reevaluation of results: equivocal”. For the same compound, the mutagenic call (Test System: MOUSE LYMPHOMA, Strain/Indicator: L5178Y (TK+/TK-), Metabolic Activation: RAT, LIVER, S-9, AROCLOR 1254, Method: SUSPENSION/PLATE) was “active; positive. reevaluation of results: positive”.

For `O=C(O)Cc1c[nH]c2ccc(O)cc12`, the mutagenic call [1] was “inactive; negative”.

In the case of `CCc1cc(O)cc2c3c([nH]c12)C(CC)(CC(=O)O)OCC3` (stereo not drawn), the mutagenic call [2] is reported as “active; positive”, the mutagenic call (Test System: AMES SALMONELLA TYPHIMURIUM, Strain/Indicator: TA98, Metabolic Activation: RAT, LIVER, S-9 (10 OR 50 µL/PLATE), Method: STANDARD PLATE) is reported as “inactive; negative” and the mutagenic call [3] is reported as “inactive; negative”. The mutagenic call (Test System: AMES SALMONELLA TYPHIMURIUM, Strain/Indicator: TA100, Metabolic Activation: RAT, LIVER, S-9 (10 OR 50 µL/PLATE), Method: STANDARD PLATE) was “inactive; negative”, the mutagenic call (Test System: AMES SALMONELLA TYPHIMURIUM, Strain/Indicator: TA1535, Metabolic Activation: NONE, Method: STANDARD PLATE) was “inactive; negative” and the mutagenic call (Test System: AMES SALMONELLA TYPHIMURIUM, Strain/Indicator: TA1535, Metabolic Activation: RAT, LIVER, S-9 (10 OR 50 µL/PLATE), Method: STANDARD PLATE) was “inactive; negative”. The mutagenic call (Test System: AMES SALMONELLA TYPHIMURIUM, Strain/Indicator: TA1537, Metabolic Activation: NONE, Method: STANDARD PLATE) was “inactive; negative”, the mutagenic call (Test System: AMES SALMONELLA TYPHIMURIUM, Strain/Indicator: TA1537, Metabolic Activation: RAT, LIVER, S-9 (10 OR 50 µL/PLATE), Method: STANDARD PLATE) was “inactive; negative” and the mutagenic call (Test System: E. COLI, Strain/Indicator: WP2 UVRA, Metabolic Activation: NONE, Method: STANDARD PLATE) was “inactive; negative”. The mutagenic call (Test System: E. COLI, Strain/Indicator: WP2 UVRA, Metabolic Activation: RAT, LIVER, S-9 (10 OR 50 µL/PLATE), Method: STANDARD PLATE) was “inactive; negative”.

With `O=CNc1ccc2c(c1)Cc1ccccc1-2` the mutagenic call [4] was “active; positive”.

With `COc1ccc2cc1Oc1ccc(cc1)C[C@H]1c3cc(c(OC)cc3CCN1C)Oc1c(OC)c(OC)cc3c1[C@H](C2)N(C)CC3` the mutagenic call [2] was “inactive; negative”, the mutagenic call [4] was “active; positive” and the mutagenic call [3] was “inactive; negative”. The mutagenic call (Test System: AMES SALMONELLA TYPHIMURIUM, Strain/Indicator: TA100, Metabolic Activation: RAT, LIVER, S-9, AROCLOR 1254, Method: STANDARD PLATE) was “inactive; negative”.

With `NC1c2ccccc2-c2ccccc21` the mutagenic call (Test System: AMES SALMONELLA TYPHIMURIUM, Strain/Indicator: TA98, Metabolic Activation: RAT, LIVER, S-9, AROCLOR 1254 (2 OR 4%), Method: STANDARD PLATE) was “inactive; negative”, the mutagenic call (Test System: AMES SALMONELLA TYPHIMURIUM, Strain/Indicator: TA100, Metabolic Activation: RAT, LIVER, S-9, AROCLOR 1254 (2%), Method: STANDARD PLATE) was “inactive; negative” and the mutagenic call (Test System: AMES SALMONELLA TYPHIMURIUM, Strain/Indicator: TA1535, Metabolic Activation: RAT, LIVER, S-9, AROCLOR 1254 (2%), Method: STANDARD PLATE) was “inactive; negative”. For the same compound, the mutagenic call (Test System: AMES SALMONELLA TYPHIMURIUM, Strain/Indicator: TA1537, Metabolic Activation: RAT, LIVER, S-9, AROCLOR 1254 (2%), Method: STANDARD PLATE) was “inactive; negative”.

With `CCCCCCOCC1CO1` (stereo not drawn) the mutagenic call [1] was “active; positive”, the mutagenic call (Test System: AMES SALMONELLA TYPHIMURIUM, Strain/Indicator: TA100, Metabolic Activation: RAT, LIVER, S-9, AROCLOR 1254 (10%), Method: PREINCUBATION) was “inactive; negative” and the mutagenic call (Test System: AMES SALMONELLA TYPHIMURIUM, Strain/Indicator: TA1535, Metabolic Activation: HAMSTER, LIVER, S-9, AROCLOR 1254 (10%), Method: PREINCUBATION) was “active; positive”. For the same compound, the mutagenic call (Test System: AMES SALMONELLA TYPHIMURIUM, Strain/Indicator: TA1535, Metabolic Activation: NONE, Method: PREINCUBATION) was “active; positive” and the mutagenic call (Test System: AMES SALMONELLA TYPHIMURIUM, Strain/Indicator: TA1535, Metabolic Activation: RAT, LIVER, S-9, AROCLOR 1254 (10%), Method: PREINCUBATION) was “active; positive”.
